The results in this text go back to ChEMBL document CHEMBL1136380, “Synthesis of beta-lactamase activated nitric oxide donors” (Bioorg Med Chem Lett, 2003).

Test [1] in a line: The NO releasing ability measured through the formation of nitrite (NO2) in solution, following incubation of the compound.
Test [2] in a line: NO releasing ability of the measured through the formation of nitrite (NO2) in solution, following incubation in the absence of beta-lactamase (Compound+penicillinase).
The nature of test [3]: NO releasing ability of the measured through the formation of nitrite (NO2) in solution, following incubation in the presence of beta-lactamase.

The structures appear in SMILES notation.

With `[NH-]c1c[n+](N2CCOCC2)no1`, the Concentration in test [1] was found to be 15.5 µM.
Consider `O=C(Cc1cccs1)N[C@@H]1C(=O)N2C(C(=O)O)=C(COC(=O)/N=c3/c[n+](N4CCOCC4)[n-]o3)CS[C@H]12`, for which the figures for the Concentration in test [2] and in test [3] were 10.2 µM and 2.2 µM, respectively.
